IC50 and Absolute bioavailability data for two compounds are collected here from article PMC9030691, “Toxicokinetics of β-Amanitin in Mice and In Vitro Drug–Drug Interaction Potential” (Pharmaceutics, 2022).

By IC50 is commonly meant the concentration that inhibits the measured activity by half.

One series deals with T1, OAT3 (Homo sapiens, UniProt Q8TCC7).
T1 sequence (Q8TCC7 1-542): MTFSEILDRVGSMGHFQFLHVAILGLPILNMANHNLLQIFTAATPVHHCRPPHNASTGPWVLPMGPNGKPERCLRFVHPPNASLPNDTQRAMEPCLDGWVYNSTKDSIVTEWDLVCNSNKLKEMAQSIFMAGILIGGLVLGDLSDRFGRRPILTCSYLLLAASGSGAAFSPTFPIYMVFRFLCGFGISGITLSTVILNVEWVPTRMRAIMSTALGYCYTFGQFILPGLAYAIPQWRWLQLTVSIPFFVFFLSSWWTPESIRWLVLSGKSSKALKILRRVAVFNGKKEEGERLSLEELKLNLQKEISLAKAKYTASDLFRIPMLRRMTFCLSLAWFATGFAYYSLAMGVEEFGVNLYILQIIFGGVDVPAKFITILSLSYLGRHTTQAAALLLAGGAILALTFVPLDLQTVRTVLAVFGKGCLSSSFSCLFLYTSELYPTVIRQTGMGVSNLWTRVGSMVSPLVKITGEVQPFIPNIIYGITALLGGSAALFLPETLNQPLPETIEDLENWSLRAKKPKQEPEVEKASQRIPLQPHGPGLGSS
Nature of the series: OAT3 transport inhibition in HEK293-OAT3 cells. Also noted: host or cells: HEK293 (TransportoCells). The series is classed as in vitro ADME. The note with it: 0.1 μM probe substrate, HBSS pH 7.4, β-amanitin 0.01–250 μM (methods), n = 3, read-out: IC50, OAT3-mediated [3H]estrone-3-sulfate uptake. As for the experimental part:
(§1) β-amanitin inhibition (IC50 values) of OCT1, OCT2, MATE2-K, OAT1, OAT3, Na^+/taurocholate co-transporting polypeptide (NTCP), OATP1B1, OATP1B3, P-glycoprotein (P-gp), and breast-cancer-resistant protein (BCRP) transport activities were assessed in HEK293 cells overexpressing individual transporters (TransportoCells™, Corning), LLC-PK1-P-gp (Corning), or LLC-PK1-BCRP (obtained from Dr. A.H. Schinkel, Netherlands Cancer Institute; Amsterdam, The Netherlands), as previously reported. Each incubation mixture was prepared to a final volume of 100 μL HBSS (pH 7.4) containing 0.1 μM probe substrates ([^3H]methyl-4-phenylpyridinium for OCT1 and OCT2, [^14C]metformin for MATE2-K, [^3H]p-aminohippuric acid for OAT1, [^3H]estrone-3-sulfate for OAT3, OATP1B1 and BCRP, [^3H]taurocholate for NTCP, [^3H]17-β-D-estradiol-glucuronide for OATP1B3, [^3H]digoxin for P-gp) and various concentrations of β-amanitin (0.01–250 μM), as previously described.

The next series has as its target MATE2-K (Homo sapiens, UniProt Q86VL8). Nature of the series: MATE2-K transport inhibition in HEK293-MATE2-K cells. Type of series: in vitro ADME. Also noted: host or cells: HEK293 (TransportoCells). The settings on record: 0.1 μM probe substrate, HBSS pH 7.4, β-amanitin 0.01–250 μM (methods), n = 3, read-out: IC50, MATE2-K-mediated [14C]metformin uptake. As for the experimental part:
as §1

The conditions of series [1]: mice, oral administration at doses of 2, 5, or 10 mg/kg; cited from earlier work. The method, then:
Amanita phalloides poisoning can cause acute hepatitis, leading to the rapid development of liver insufficiency and ultimately coma and death. Nephrotoxicity is reported less frequently. Yilmaz et al. reported that an oral intake of approximately 50 g of fresh Amanita phalloides, representing a dose of 0.32 mg/kg of amatoxins, can be lethal. A few reports are available that describe the toxicokinetics of α- and β-amanitin after the oral administration of toadstool extract to beagle dogs and rats. In addition, the toxicokinetics of α-amanitin were investi ...

Chain of MATE2-K (Q86VL8 1-566 isoform Q86VL8-3): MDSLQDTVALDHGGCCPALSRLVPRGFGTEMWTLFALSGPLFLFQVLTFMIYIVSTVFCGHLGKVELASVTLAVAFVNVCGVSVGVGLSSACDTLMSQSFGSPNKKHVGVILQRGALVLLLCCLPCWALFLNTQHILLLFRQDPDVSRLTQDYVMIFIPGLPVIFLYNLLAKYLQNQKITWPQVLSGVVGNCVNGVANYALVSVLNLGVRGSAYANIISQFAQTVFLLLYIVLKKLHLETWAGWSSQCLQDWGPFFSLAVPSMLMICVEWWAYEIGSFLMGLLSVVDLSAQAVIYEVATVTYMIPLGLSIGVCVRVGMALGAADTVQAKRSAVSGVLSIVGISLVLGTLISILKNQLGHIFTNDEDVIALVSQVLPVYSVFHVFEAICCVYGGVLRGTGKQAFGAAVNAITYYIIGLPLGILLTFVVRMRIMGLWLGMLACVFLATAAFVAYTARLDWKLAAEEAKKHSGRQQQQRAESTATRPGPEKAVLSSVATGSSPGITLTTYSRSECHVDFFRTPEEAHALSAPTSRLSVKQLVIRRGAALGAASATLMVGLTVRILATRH

Consider `CC[C@H](C)[C@@H]1NC(=O)CNC(=O)[C@@H]2Cc3c([nH]c4cc(O)ccc34)[S@+]([O-])C[C@H](NC(=O)CNC1=O)C(=O)N[C@@H](CC(=O)O)C(=O)N1C[C@H](O)C[C@H]1C(=O)N[C@@H]([C@@H](C)[C@@H](O)CO)C(=O)N2` [β-amanitin], for which the results for the IC50 at OAT3 and at MATE2-K were 37.4 µM and 2.1 µM, respectively.

As to α-amanitin [reference compound], the Absolute bioavailability in series [1] is recorded as 3.5–4.8%.
